Where two headings read alike, the source gives them in different places.
Key:
[1] = Musculoskeletal adverse events, study A4141001; format: in vivo, human
[2] = test system: CYP1A2, CYP2A6, CYP2C9, CYP2C19, CYP2D6, CYP2E1, CYP3A4; test: in vitro; conditions: human, microsomes
Description: Human livers, HLM141, HLM143, and HLM144 were selected from the University of Washington Human Liver Bank for this study. […] The actual concentrations used for each of the other probes are specified below. […] The seven isoforms and the metabolic pathway of each of the probes used to monitor specific isoform activity are listed below.

fibrinogen = test: Fibrinogen in hypercholesterolemic patients, post hoc analysis of Study A4141001; format: in vivo, human; conditions: for Difference in fibrinogen change, Gem-placebo: subgroup baseline >400 mg/dL
Procedure: Week 0) and the end (Visit T8, Week 8). Analyses of covariance (ANCOVA) methods used in the original study A4141001 were again utilized in these analyses. For fibrinogen, baseline was defined as the last pretreatment visit, and endpoint was the last visit up to and including the day after last dose of medication. The least-squares means and p-values for change from baseline in fibrinogen were calculated using an ANCOVA model with the effects of baseline lipid value and treatment. Also, medians and p-values for percent change from baseline. […] This, consequently, was the definition for the modified intent-to treat (MITT) population.

CYP2C9 = target: T1, CYP2C9 (Homo sapiens, UniProt P11712); test: Inhibition of CYP2C9 (7-hydroxylation of (S)-warfarin) in human liver microsomes; format: in vitro ADME; conditions: probe (S)-warfarin (7-hydroxylation), 4 μM, read-out: inhibitory activity toward CYP2C9
T1 construct: Human livers, HLM141, HLM143, and HLM144 were selected from the University of Washington Human Liver Bank for this study; Microsomes were prepared; tissue University of Washington Human Liver Bank HLM141, HLM143, HLM144; host or cells: human liver microsomes
Procedure: (§1) Human livers, HLM141, HLM143, and HLM144 were selected from the University of Washington Human Liver Bank for this study. […] The seven isoforms and the metabolic pathway of each of the probes used to monitor specific isoform activity are listed below.
CYP2C9: The 7-hydroxylation of (S)-warfarin (4 μM). The reaction is monitored by quantitative GC/MS using 7-hydroxywarfarin-(d5-phenyl) as the internal standard.

[3] = gemcabene 300 and 900 mg QD with atorvastatin 80 mg QD
CYP2E1 = target: T2, CYP2E1 (Homo sapiens, UniProt P05181); test: Inhibition of CYP2E1 (p-nitrocatechol from p-nitrophenol) in human liver microsomes; format: in vitro ADME; conditions: 1500 μM
T2 construct: Human livers, HLM141, HLM143, and HLM144 were selected from the University of Washington Human Liver Bank for this study; Microsomes were prepared; tissue University of Washington Human Liver Bank HLM141, HLM143, HLM144; host or cells: human liver microsomes
Procedure: as §1
CYP2E1: The formation of p-nitrocatechol from p-nitrophenol (40 μM). Amounts of product formed are monitored by HPLC.

CYP2D6 = target: T3, CYP2D6 (Homo sapiens, UniProt P10635); test: Inhibition of CYP2D6 (demethylation of dextromethorphan) in human liver microsomes; format: in vitro ADME; conditions: probe dextromethorphan (O-demethylation), 5 μM, read-out: inhibitory activity toward CYP2D6
T3 construct: Human livers, HLM141, HLM143, and HLM144 were selected from the University of Washington Human Liver Bank for this study; Microsomes were prepared; tissue University of Washington Human Liver Bank HLM141, HLM143, HLM144; host or cells: human liver microsomes
Procedure: as §1
CYP2D6: The 0-demethylation of dextromethorphan (5 μM). The reaction is monitored by high performance liquid chromatography (HPLC) using florescence detection.

[4] = Effect of gemcabene on simvastatin pharmacokinetics (active HMG-Co-A reductase inhibitor concentration); format: in vivo, human; conditions: simvastatin alone vs in combination with gemcabene
[5] = test system: STAM model of non-alcoholic steatohepatitis (NASH); conditions: for Fasting blood glucose (mean ± SD): Day 18, 8 hours of fasting; for Non-fasting blood glucose (mean ± SD): termination (Day 21); for Plasma GGT (mean ± SD) / Plasma creatinine (mean ± SD) / Plasma ALP (mean ± SD): mouse, in vivo, po
Procedure: Telmisartan (Micardis®) was purchased from Boehringer Ingelheim GmbH (Germany) and dissolved in pure water.
Telmisartan was administered at a dose of 10 mg/kg once daily.
Eight-hour fasting blood glucose was measured in whole blood using Life Check (EIDIA Co. Ltd., Japan). For plasma biochemistry, eight-hour fasting blood was collected in polypropylene tubes with anticoagulant (Novo-Heparin, Mochida Pharmaceutical, Japan) and centrifuged at 1,000×g for 15 minutes at 4° C. The supernatant was collected and stored at −80° C. until use. Plasma insulin levels were quantified by Ultra Sensitive Mouse Insulin ELISA kit (Morinaga Institute of Biological Science, Inc., Japan).
On the day of termination, non-fasting blood glucose was measured in whole blood using Life Check. For plasma biochemistry, non-fasting blood was collected in polypropylene tubes with anticoagulant (Novo-Heparin) and centrifuged at 1,000×g for 15 minutes at 4° C. The supernatant was collected and stored at −80° C. until use. Plasma ALT, AST, ALP, GGT, BUN, creatinine and total bilirubin levels were measured by FUJI DRI-CHEM 7000 (Fujifilm Corporation, Japan). Plasma ketone body levels were quantified by EnzyChrom™ Ketone Body Assay Kit (BioAssay Systems, USA).
Liver samples were homogenized in chloroform-methanol (2:1, v/v) and incubated overnight at room temperature. After washing with chloroform-methanol-water (8:4:3, v/v/v), the extracts were evaporated to dryness, and dissolved in isopropanol. Liver triglyceride content was measured by Triglyceride E-test (Wako Pure Chemical Industries). […]
Statistical analyses were performed using Bonferroni Multiple Comparison Test on GraphPad Prism 6 (GraphPad Software Inc., USA). […] Results were expressed as mean±SD.
The viability, clinical signs and behavior were monitored daily. Body weight was recorded before the treatment. […] The animals were sacrificed by exsanguinations through direct cardiac puncture under isoflurane anesthesia (Pfizer Inc.) at 9 weeks of age.

[6] = A4141001, patient type IIa + IIb
[7] = STAM NASH mice, 30 mg/kg PO QD, 30 mg/kg
[8] = STAM NASH mice, 100 mg/kg PO QD, 100 mg/kg
[9] = STAM NASH mice, 100 mg/kg PO QD, Day 21, 100 mg/kg
[10] = STAM NASH mice, 300 mg/kg PO QD, 300 mg/kg

T2 sequence (P05181 whole entry): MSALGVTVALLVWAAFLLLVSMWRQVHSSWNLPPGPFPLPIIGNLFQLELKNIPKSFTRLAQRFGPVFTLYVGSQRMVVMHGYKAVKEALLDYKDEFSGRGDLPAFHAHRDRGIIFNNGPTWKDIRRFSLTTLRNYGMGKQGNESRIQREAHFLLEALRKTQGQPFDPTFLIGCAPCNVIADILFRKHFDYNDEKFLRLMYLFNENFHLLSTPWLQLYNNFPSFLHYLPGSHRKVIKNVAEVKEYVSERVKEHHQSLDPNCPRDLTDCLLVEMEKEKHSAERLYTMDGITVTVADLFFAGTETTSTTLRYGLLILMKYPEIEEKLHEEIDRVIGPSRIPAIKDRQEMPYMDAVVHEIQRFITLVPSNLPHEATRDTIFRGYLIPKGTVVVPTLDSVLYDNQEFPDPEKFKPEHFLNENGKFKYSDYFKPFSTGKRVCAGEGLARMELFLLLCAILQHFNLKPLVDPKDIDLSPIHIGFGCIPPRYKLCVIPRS
T3 sequence (P10635 whole entry): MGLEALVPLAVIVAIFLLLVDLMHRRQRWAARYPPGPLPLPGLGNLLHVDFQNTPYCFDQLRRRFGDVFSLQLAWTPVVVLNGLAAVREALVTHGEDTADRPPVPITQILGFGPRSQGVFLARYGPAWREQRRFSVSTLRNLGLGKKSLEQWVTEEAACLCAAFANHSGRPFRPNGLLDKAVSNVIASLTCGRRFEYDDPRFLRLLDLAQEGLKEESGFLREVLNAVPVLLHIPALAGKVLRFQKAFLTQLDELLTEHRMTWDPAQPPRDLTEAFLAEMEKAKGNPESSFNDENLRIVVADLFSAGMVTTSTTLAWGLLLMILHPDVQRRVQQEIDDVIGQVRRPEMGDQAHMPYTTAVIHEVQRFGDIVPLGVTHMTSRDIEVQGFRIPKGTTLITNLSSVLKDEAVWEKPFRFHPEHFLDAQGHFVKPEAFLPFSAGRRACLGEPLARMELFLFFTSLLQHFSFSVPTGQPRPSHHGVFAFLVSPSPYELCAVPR
T1 sequence (P11712 whole entry): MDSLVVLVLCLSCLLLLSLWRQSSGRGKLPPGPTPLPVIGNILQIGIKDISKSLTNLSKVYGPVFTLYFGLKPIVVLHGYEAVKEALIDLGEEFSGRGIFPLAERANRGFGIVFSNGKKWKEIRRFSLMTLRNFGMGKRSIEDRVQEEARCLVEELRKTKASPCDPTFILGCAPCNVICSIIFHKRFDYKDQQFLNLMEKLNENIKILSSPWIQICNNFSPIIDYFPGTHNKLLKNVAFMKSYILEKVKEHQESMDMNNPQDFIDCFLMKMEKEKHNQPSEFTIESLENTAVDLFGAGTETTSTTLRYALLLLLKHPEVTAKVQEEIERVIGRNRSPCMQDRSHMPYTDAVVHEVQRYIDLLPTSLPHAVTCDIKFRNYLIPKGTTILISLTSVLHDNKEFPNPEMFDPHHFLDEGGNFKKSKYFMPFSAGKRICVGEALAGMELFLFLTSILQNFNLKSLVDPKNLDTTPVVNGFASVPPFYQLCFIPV

CC(C)(CCCCOCCCCC(C)(C)C(=O)O)C(=O)O [Gemcabene, 6,6′-oxybis(2,2-dimethylhexanoic acid)]
% = the percent of patients experiencing a musculoskeletal adverse event ([1]; A4141001, patient type IIa): 0.0%
No = the number of muscle skeletal adverse events ([1]; A4141001, patient type IIa): 0
% = the percent of patients experiencing a musculoskeletal adverse event [1, 6]: 0.0%
No = the number of muscle skeletal adverse events [1, 6]: 0
% = the percent of patients experiencing a musculoskeletal adverse event ([1]; A4141001, patient type IIb): 0.0%
No = the number of muscle skeletal adverse events ([1]; A4141001, patient type IIb): 0
IC50 [2]: > 454 µg/mL
Difference in fibrinogen change = Gem − Placebo (fibrinogen; MITT, Gemcabene 300 mg): −13.0
Difference in fibrinogen change, Gem-placebo (fibrinogen; Gem 300 mg): 5.0
Difference in fibrinogen change, Gem-placebo (fibrinogen; Gem 900 mg): −34.0
inhibition at 1500 µM (CYP2C9): 10 to 20%
effect on atorvastatin pharmacokinetics (Cmax, tmax, AUC(0-24), t½, atorvastatin and metabolites) [3]: no clinically important effect
CYP2E1 activity enhanced (CYP2E1): about 20%
inhibition at 1500 µM (CYP2D6): 10 to 20%
effect on active HMG-Co-A reductase inhibitor pharmacokinetics after simvastatin (80 mg) [4]: lowers Cmax but has no effect on AUC
NAFLD Activity score, NAS (mean ± SD) ([5]; STAM NASH mice, 30 mg/kg PO QD 6-9 wks, 30 mg/kg): significant reduction
Fasting blood glucose (mean ± SD) [5, 7]: no significant differences
Liver triglyceride (mean ± SD) ([5]; STAM NASH mice, 30 mg/kg PO QD, Day 21, 30 mg/kg): no significant differences
Non-fasting blood glucose (mean ± SD) [5, 7]: no significant differences
Fasting blood glucose (mean ± SD) [5, 8]: no significant differences
Liver triglyceride (mean ± SD) [5, 9]: no significant differences
Plasma ALT (mean ± SD) [5, 9]: significant decrease
Non-fasting blood glucose (mean ± SD) [5, 8]: no significant differences
NAFLD Activity score, NAS (mean ± SD) ([5]; STAM NASH mice, 300 mg/kg PO QD 6-9 wks, 300 mg/kg): significant reduction
Fasting blood glucose (mean ± SD) [5, 10]: no significant differences
Liver triglyceride (mean ± SD) ([5]; STAM NASH mice, 300 mg/kg PO QD, Day 21, 300 mg/kg): no significant differences
Non-fasting blood glucose (mean ± SD) [5, 10]: no significant differences
fibrosis area compared with the Vehicle in NASH group ([5]; STAM NASH mice, all treatment groups (gemcabene 30, 100, 300 mg/kg; telmisartan 10 mg/kg)): significantly reduced
Plasma GGT (mean ± SD) ([5]; 30 mg/kg): 1 ± 0 U/L
Plasma creatinine (mean ± SD) ([5]; 30 mg/kg): 0.1 ± 0.0 mg/dL
Plasma ALP (mean ± SD) ([5]; 100 mg/kg): significant increases
Plasma GGT (mean ± SD) ([5]; 100 mg/kg): 1 ± 0 U/L
Plasma ALP (mean ± SD) ([5]; 300 mg/kg): significant increases
Plasma GGT (mean ± SD) ([5]; 300 mg/kg): 1 ± 0 U/L
Plasma creatinine (mean ± SD) ([5]; 300 mg/kg): significant increase
